Assays:
[1] = test system: ICP0-null HSV-N212eGFP; type: cell-based, Herpes Simplex Virus type-1 (HSV-1)
[2] = test system: Influenza H1N1 A/Puerto Rico/8/34 (PR8); type: cell-based
[3] = test system: adeno-associated virus expressing firefly luciferase; type: cell-based, AAV serotype 6
[4] = test system: adenovirus expressing firefly luciferase; type: cell-based, Adenovirus Serotype 5
[5] = test system: MVA-eGFP; type: cell-based, modified vaccine ankara (MVA); details: human renal carcinoma (786-0) cells; infected after 4 hours, MOI 0.01; 48 h and 64 h after infection
[6] = test system: adenovirus expressing firefly luciferase; test: Adenovirus transduction in normal mouse muscle tissue cores; type: cell-based, Adenovirus Serotype 5; details: 10, 20 or 40 uM for 4 hours, 1×10^7 pfu/well, 36 hours post-infection
[7] = test system: Salmonella typhimurium strains TA98 and TA100
[8] = test system: adenovirus expressing firefly luciferase; test: Adenovirus transduction in normal mouse brain tissue cores; type: cell-based, Adenovirus Serotype 5; details: 10, 20 or 40 uM for 4 hours, 1×10^7 pfu/well, 36 hours post-infection
[9] = test system: adenovirus expressing firefly luciferase; test: Adenovirus transduction in A549 cancer cells (MOI 0.1, luciferase luminescence); type: cell-based, Adenovirus Serotype 5; details: pre-treated 2 hours at 21 uM to 120 or 160 uM, 40 hours post-infection
[10] = test system: A/FM1 (H1N1); set-up: species or system Influenza A H1N1; details: in vivo
[11] = test system: IFN-responsive U251 human glioma cells; details: cited from earlier work
[12] = test system: IFN-responsive promoter; details: cited from earlier work
[13] = test system: virus-induced cellular genes; details: gene expression microarrays; cited from earlier work
[14] = test system: VSV-Maraba-MG1-eGFP virus; type: cell-based, Maraba MG-1

SMILES	HSV-1 replication (eGFP fluorescence and HSV titers) [1]	adeno-associated virus vector production (luciferase activity, fold increase vs untreated) [3]	adenovirus vector production (luciferase activity, fold increase vs untreated) [4]	MVA vaccine strain infection of cells (eGFP fluorescence) [5]	Adenovirus transduction in normal muscle tissue [6]	Adenovirus transduction in normal brain tissue [8]	Adenovirus transduction in cancer cells (fold increase luciferase luminescence vs adenovirus alone) [9]	other results
COc1ccccc1CN1C(=O)C(Cl)=C(Cl)C1O (stereo not drawn) [CM01025, 3,4-Dichloro-5-hydroxy-1-(2-methoxy-benzyl)-1,5-dihydro-pyrrol-2-one]	enhance Herpes Simplex Virus type-1 (HSV-1) replication							
CN1C(=O)C(Cl)=C(Cl)C1O (stereo not drawn) [CM01031, 3,4-Dichloro-5-hydroxy-1-methyl-1,5-dihydro-pyrrol-2-one]								PR8 titers, MDCK (NBL-2) cells [2]: Enhancement of PR8; PR8 titers, MDCK.2 cells [2]: Enhancement of PR8
O=C1C(Cl)=C(Cl)C(O)N1Cc1ccccc1 (stereo not drawn) [MD01145, α,β-dichloro-γ-hydroxy-N-benzyl-crotonic lactam]	enhance Herpes Simplex Virus type-1 (HSV-1) replication	enhance the production	enhance the production	can be enhanced	enhance adenovirus transduction	enhance Adenovirus transduction		dose-dependent increase in the number of revertants [7]: does not produce a dose-dependent increase; mutagenic potential [7]: not mutagenic
C#CCN1C(=O)C(Cl)=C(Cl)C1O (stereo not drawn) [MD01151, 3,4-Dichloro-5-hydroxy-1-prop-2-ynyl-1,5-dihydro-pyrrol-2-one]	enhance Herpes Simplex Virus type-1 (HSV-1) replication			can be enhanced			enhance Adenovirus transduction	
O=c1[nH]ncc(Cl)c1Cl [MD02026, 4,5-Dichloro-2H-pyridazin-3-one]		enhance the production	enhance the production	can be enhanced	enhance adenovirus transduction	enhance Adenovirus transduction		
O=C1C(Cl)=C(Cl)C(O)N1CCc1ccccc1 (stereo not drawn) [MD03009, 3,4-dichloro-5-hydroxy-1-phenethyl-1H-pyrrol-2(5H)-one]				can be enhanced			enhance Adenovirus transduction	
O=C1C(Cl)=C(Cl)C(O)N1CCN1CCOCC1 (stereo not drawn) [MD03011, 3,4-dichloro-5-hydroxy-1-(2-morpholinoethyl)-1H-pyrrol-2(5H)-one]				can be enhanced	enhance adenovirus transduction	enhance Adenovirus transduction	enhance Adenovirus transduction	A/FM1 (H1N1) production in ovo (plaque assay titer, HA titer by HPLC AUC) [10]: enhances A/FM1 (H1N1) production
COS(C)(=O)=O [MMS, methyl methanesulfonate, reference compound]								reversion rate (number of revertants) [7]: high number of revertants
O=C1OC(c2ccccc2)C(Cl)=C1Cl (stereo not drawn) [VSe1, 3,4-dichloro-5-phenyl-2,5-dihydrofuran-2-one, reference compound]	enhance Herpes Simplex Virus type-1 (HSV-1) replication	enhance the production	enhance the production	can be enhanced			enhance Adenovirus transduction	IFN-mediated protection of cells to VSVΔ51 infection [11]: suppress IFN-mediated protection; IFN-induced transcriptional activity [12]: inhibit IFN-induced transcriptional activity; virus-induced cellular genes whose transcription is repressed [13]: > 95%; replication / spread of oncolytic virus MG1 (eGFP expression) [14]: enhance the replication

— patent US12195451B2 (priority 2015, dated 2025)
